{"source": "ChEMBL document CHEMBL4043241", "about": "“Development and evaluation of 4-(pyrrolidin-3-yl)benzonitrile derivatives as inhibitors of lysine specific demethylase 1” (Bioorg Med Chem Lett, 2017)", "key": {"[1]": {"target": "T1, Amine oxidase [flavin-containing] A (Homo sapiens, UniProt P21397)", "T1 sequence (P21397 whole entry)": "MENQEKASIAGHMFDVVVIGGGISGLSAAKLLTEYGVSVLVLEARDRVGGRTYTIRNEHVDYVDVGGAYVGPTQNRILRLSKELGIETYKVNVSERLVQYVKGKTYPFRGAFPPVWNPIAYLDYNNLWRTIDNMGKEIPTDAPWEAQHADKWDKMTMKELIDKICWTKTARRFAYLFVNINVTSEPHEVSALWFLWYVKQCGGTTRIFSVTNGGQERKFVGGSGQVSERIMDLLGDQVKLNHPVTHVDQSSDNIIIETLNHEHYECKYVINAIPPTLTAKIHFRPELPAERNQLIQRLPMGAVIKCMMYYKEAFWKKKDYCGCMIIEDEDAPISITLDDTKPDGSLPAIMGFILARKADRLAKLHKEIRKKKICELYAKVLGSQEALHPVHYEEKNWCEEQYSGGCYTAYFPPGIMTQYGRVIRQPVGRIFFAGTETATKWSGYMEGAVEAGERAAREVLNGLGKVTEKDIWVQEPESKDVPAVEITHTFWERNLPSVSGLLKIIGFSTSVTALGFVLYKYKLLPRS", "test": "Inhibition of recombinant human MAO-A expressed in supersomes using kynuramine as substrate by LC-MS/MS analysis"}, "[2]": {"target": "T2, Amine oxidase [flavin-containing] B (Homo sapiens, UniProt P27338)", "T2 sequence (P27338 whole entry)": "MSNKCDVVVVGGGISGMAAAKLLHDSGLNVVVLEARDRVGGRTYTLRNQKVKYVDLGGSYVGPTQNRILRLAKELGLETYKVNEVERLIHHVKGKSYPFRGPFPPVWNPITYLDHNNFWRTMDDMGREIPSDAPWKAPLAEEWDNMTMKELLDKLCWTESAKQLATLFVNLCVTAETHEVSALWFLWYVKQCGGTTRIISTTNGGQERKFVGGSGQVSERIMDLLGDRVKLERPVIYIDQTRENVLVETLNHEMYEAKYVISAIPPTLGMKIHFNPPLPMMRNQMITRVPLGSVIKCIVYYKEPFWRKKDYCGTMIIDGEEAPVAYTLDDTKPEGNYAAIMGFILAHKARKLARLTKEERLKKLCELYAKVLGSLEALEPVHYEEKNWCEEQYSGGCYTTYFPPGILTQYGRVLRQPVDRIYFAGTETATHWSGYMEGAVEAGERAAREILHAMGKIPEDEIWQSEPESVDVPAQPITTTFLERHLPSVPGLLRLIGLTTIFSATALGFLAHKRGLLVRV", "test": "Inhibition of recombinant human MAO-B expressed in supersomes using kynuramine as substrate by LC-MS/MS analysis"}, "[3]": {"target": "Voltage-gated inwardly rectifying potassium channel KCNH2 (Homo sapiens, UniProt Q12809)", "sequence (Q12809 whole entry)": "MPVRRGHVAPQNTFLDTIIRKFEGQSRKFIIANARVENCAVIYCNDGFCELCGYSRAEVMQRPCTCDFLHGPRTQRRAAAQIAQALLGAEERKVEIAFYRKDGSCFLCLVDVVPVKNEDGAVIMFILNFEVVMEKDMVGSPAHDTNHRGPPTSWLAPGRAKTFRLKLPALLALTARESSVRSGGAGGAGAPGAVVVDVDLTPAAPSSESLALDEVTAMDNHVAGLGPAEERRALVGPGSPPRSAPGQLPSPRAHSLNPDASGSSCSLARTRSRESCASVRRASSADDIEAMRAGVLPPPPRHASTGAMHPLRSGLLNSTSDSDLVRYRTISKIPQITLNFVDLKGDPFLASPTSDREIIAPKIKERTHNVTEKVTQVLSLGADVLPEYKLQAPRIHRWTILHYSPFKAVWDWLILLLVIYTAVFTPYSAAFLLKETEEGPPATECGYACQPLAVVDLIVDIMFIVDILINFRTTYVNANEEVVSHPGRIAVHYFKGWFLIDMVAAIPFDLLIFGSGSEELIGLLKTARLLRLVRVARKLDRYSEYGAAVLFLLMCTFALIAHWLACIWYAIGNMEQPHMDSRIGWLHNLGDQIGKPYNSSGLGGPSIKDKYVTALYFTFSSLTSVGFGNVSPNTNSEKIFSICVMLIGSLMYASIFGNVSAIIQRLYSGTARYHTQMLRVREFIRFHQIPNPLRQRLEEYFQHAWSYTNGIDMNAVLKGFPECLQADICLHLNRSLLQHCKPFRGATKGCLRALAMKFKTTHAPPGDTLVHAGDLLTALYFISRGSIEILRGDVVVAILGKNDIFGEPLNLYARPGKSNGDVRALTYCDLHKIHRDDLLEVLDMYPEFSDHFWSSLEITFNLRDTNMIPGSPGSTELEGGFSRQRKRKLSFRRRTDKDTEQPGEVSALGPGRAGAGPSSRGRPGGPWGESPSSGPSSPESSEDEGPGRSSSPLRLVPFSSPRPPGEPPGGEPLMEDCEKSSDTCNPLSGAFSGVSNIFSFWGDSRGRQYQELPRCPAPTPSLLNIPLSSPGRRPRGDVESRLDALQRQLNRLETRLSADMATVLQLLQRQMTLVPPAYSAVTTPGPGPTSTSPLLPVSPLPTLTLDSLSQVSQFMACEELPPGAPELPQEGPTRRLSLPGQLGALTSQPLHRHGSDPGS", "test": "Inhibition of human ERG expressed in CHO cells by Ionworks electrophysiology method", "assay_type": "cell-based"}, "[4]": {"target": "T3, Lysine-specific histone demethylase 1A (Homo sapiens, UniProt O60341)", "test": "Binding affinity to LSD1 (unknown origin) by SPR analysis"}, "[5]": {"target": "T3, Lysine-specific histone demethylase 1A", "description": "Inhibition of recombinant human N-terminal truncated LSD1 (151 to 852 residues) expressed in Escherichia coli using histone H3(1-21)K4(Me1) biotin peptide as substrate measured after 30 mins by TR-FRET assay"}}}
{"molecule": "Cc1ccc([C@@H]2CN(C(=O)[C@H]3CC[C@H](CN)CC3)C[C@H]2c2ccc(C#N)cc2)cc1", "values": [{"measurement": "IC50", "setting": "[1]", "result": "> 25", "unit": "µM"}, {"measurement": "IC50", "setting": "[2]", "result": "> 25", "unit": "µM"}, {"measurement": "IC50", "setting": "[3]", "result": 12.1, "unit": "µM"}]}
{"molecule": "Cc1ccc(-c2ncc(OC[C@@H]3CCNC3)cc2-c2ccc(C#N)cc2)cc1", "values": [{"measurement": "Kd", "setting": "[4]", "result": 0.008, "unit": "µM"}, {"measurement": "IC50", "setting": "[3]", "result": 3.2, "unit": "µM"}, {"measurement": "IC50", "setting": "[5]", "result": 0.041, "unit": "µM"}]}
